Tested on: GRMD plasma proteins
Type: in vivo, dog
Settings: Post-Treatment to GRMD baseline

For `O=c1ccc(-c2cnc(OCC(F)(F)F)nc2)nn1Cc1cncc(F)c1` [EDG-5506], the “Protein jagged-1 (JAG1): Change from GRMD Baseline (fraction)” value (Decreased in GRMD) was 0.0021 fraction, the “Retinol-binding protein 4 (RBP4): Change from GRMD Baseline (fraction)” value (Decreased in GRMD) was 0.0032 fraction and the “Roundabout homolog 2 (ROBO2): Change from GRMD Baseline (fraction)” value (Decreased in GRMD) was -0.0814 fraction. For the same molecule, the “SLIT and NTRK-like protein 5 (SLITRK5): Change from GRMD Baseline (fraction)” value (Decreased in GRMD) was -0.2994 fraction, the “SPARC (SPARC): Change from GRMD Baseline (fraction)” value (Decreased in GRMD) was -0.1611 fraction and the “Sclerostin (SOST): Change from GRMD Baseline (fraction)” value (Decreased in GRMD) was 0.0855 fraction. For the same molecule, the “Semaphorin-3E (SEMA3E): Change from GRMD Baseline (fraction)” value (Decreased in GRMD) was -0.1435 fraction, the “Semaphorin-5A (SEMA5A): Change from GRMD Baseline (fraction)” value (Decreased in GRMD) was -0.108 fraction and the “Serum albumin (ALB): Change from GRMD Baseline (fraction)” value (Decreased in GRMD) was -0.0304 fraction. For the same molecule, the “Sialic acid-binding Ig-like lectin 6 (SIGLEC6): Change from GRMD Baseline (fraction)” value (Decreased in GRMD) was 0.0534 fraction, the “Stem cell growth factor-alpha (CLEC11A): Change from GRMD Baseline (fraction)” value (Decreased in GRMD) was -0.1896 fraction and the “T-lymphocyte surface antigen Ly-9 (LY9): Change from GRMD Baseline (fraction)” value (Decreased in GRMD) was 0.0022 fraction. The “TGF-beta receptor type-2 (TGFBR2): Change from GRMD Baseline (fraction)” value (Decreased in GRMD) was 0.1736 fraction, the “Tropomyosin alpha-1 chain (TPM1): Change from GRMD Baseline (fraction)” value (Decreased in GRMD) was 0.8207 fraction and the “Tumor necrosis factor receptor superfamily member 10B (TNFRSF10B): Change from GRMD Baseline (fraction)” value (Decreased in GRMD) was -0.0324 fraction. For the same molecule, the “Tumor necrosis factor-inducible gene 6 protein (TNFAIP6): Change from GRMD Baseline (fraction)” value (Decreased in GRMD) was 1.4994 fraction, the “Wnt inhibitory factor 1 (WIF1): Change from GRMD Baseline (fraction)” value (Decreased in GRMD) was -0.1154 fraction and the “Activated Protein C (PROC): Change from GRMD Baseline (fraction)” value (Increased in GRMD) was 0.4863 fraction. The “Adiponectin (ADIPOQ): Change from GRMD Baseline (fraction)” value (Increased in GRMD) was 0.0194 fraction, the “Alanine aminotransferase 1 (GPT): Change from GRMD Baseline (fraction)” value (Increased in GRMD) was 0.0095 fraction and the “Alpha-2-antiplasmin (SERPINF2): Change from GRMD Baseline (fraction)” value (Increased in GRMD) was -0.0109 fraction. The “Apolipoprotein D (APOD): Change from GRMD Baseline (fraction)” value (Increased in GRMD) was 0.0538 fraction, the “Apolipoprotein L1 (APOL1): Change from GRMD Baseline (fraction)” value (Increased in GRMD) was -0.0015 fraction and the “Asialoglycoprotein receptor 1 (ASGR1): Change from GRMD Baseline (fraction)” value (Increased in GRMD) was -0.0063 fraction. The “Bone morphogenetic protein 1 (BMP1): Change from GRMD Baseline (fraction)” value (Increased in GRMD) was -0.0803 fraction, the “Breast cancer anti-estrogen resistance protein 3 (BCAR3): Change from GRMD Baseline (fraction)” value (Increased in GRMD) was -0.0258 fraction and the “C5a anaphylatoxin (C5): Change from GRMD Baseline (fraction)” value (Increased in GRMD) was -0.0743 fraction. For the same molecule, the “C-C motif chemokine 1 (CCL1): Change from GRMD Baseline (fraction)” value (Increased in GRMD) was 0.0039 fraction, the “C-C motif chemokine 3 (CCL3): Change from GRMD Baseline (fraction)” value (Increased in GRMD) was -0.0317 fraction and the “C-X-C motif chemokine 5 (CXCL5): Change from GRMD Baseline (fraction)” value (Increased in GRMD) was 0.0104 fraction. For the same molecule, the “CD63 antigen (CD63): Change from GRMD Baseline (fraction)” value (Increased in GRMD) was -0.0301 fraction, the “CD97 antigen (CD97): Change from GRMD Baseline (fraction)” value (Increased in GRMD) was 0.0218 fraction and the “CD109 antigen (CD109): Change from GRMD Baseline (fraction)” value (Increased in GRMD) was 0.0141 fraction. The “CD177 antigen (CD177): Change from GRMD Baseline (fraction)” value (Increased in GRMD) was -0.108 fraction, the “Carbonic anhydrase 4 (CA4): Change from GRMD Baseline (fraction)” value (Increased in GRMD) was 0.0571 fraction and the “Caspase-3 (CASP3): Change from GRMD Baseline (fraction)” value (Increased in GRMD) was -0.049 fraction. For the same molecule, the “Cell adhesion molecule 3 (CADM3): Change from GRMD Baseline (fraction)” value (Increased in GRMD) was 0.0642 fraction, the “Change from GRMD Baseline (fraction): 1-phosphatidylinositol 4,5-bisphosphate phosphodiesterase gamma-1 (PLCG1)” value (Increased in GRMD) was 0.0175 fraction and the “Change from GRMD Baseline (fraction): 14-3-3 protein family (YWHAB,YWHAE,YWHAG,YWHAH,YWHAQ,YWHAZ,SFN)” value (Increased in GRMD) was -0.0622 fraction. The “Change from GRMD Baseline (fraction): 26S proteasome non-ATPase regulatory subunit 7 (PSMD7)” value (Increased in GRMD) was -0.0966 fraction, the “Change from GRMD Baseline (fraction): 40S ribosomal protein S7 (RPS7)” value (Increased in GRMD) was -0.1727 fraction and the “Change from GRMD Baseline (fraction): A disintegrin and metalloproteinase with thrombospondin motifs 5 (ADAMTS5)” value (Increased in GRMD) was 0.0247 fraction. For the same molecule, the “Change from GRMD Baseline (fraction): A disintegrin and metalloproteinase with thrombospondin motifs 15 (ADAMTS15)” value (Increased in GRMD) was 0.1616 fraction, the “Change from GRMD Baseline (fraction): AH receptor-interacting protein (AIP)” value (Increased in GRMD) was 0.0125 fraction and the “Change from GRMD Baseline (fraction): AMP Kinase (alpha2beta2gamma1) (PRKAA2 PRKAB2 PRKAG1)” value (Increased in GRMD) was -0.177 fraction. The “Change from GRMD Baseline (fraction): ATP synthase subunit beta, mitochondrial (ATP5B)” value (Increased in GRMD) was 0.0065 fraction, the “Change from GRMD Baseline (fraction): ATP-dependent RNA helicase DDX19B (DDX19B)” value (Increased in GRMD) was -0.0978 fraction and the “Change from GRMD Baseline (fraction): Acidic leucine-rich nuclear phosphoprotein 32 family member B (ANP32B)” value (Increased in GRMD) was -0.0886 fraction. The “Change from GRMD Baseline (fraction): Activin receptor type-1B (ACVR1B)” value (Increased in GRMD) was -0.017 fraction, the “Change from GRMD Baseline (fraction): Adenylate kinase isoenzyme 1 (AK1)” value (Increased in GRMD) was -0.2055 fraction and the “Change from GRMD Baseline (fraction): Adenylosuccinate lyase (ADSL)” value (Increased in GRMD) was 0.0105 fraction. The “Change from GRMD Baseline (fraction): Afamin (AFM)” value (Increased in GRMD) was -0.0171 fraction, the “Change from GRMD Baseline (fraction): Aflatoxin B1 aldehyde reductase member 2 (AKR7A2)” value (Increased in GRMD) was -0.0506 fraction and the “Change from GRMD Baseline (fraction): Alcohol dehydrogenase [NADP(+)] (AKR1A1)” value (Increased in GRMD) was -0.1025 fraction. For the same molecule, the “Change from GRMD Baseline (fraction): Aminoacylase-1 (ACY1)” value (Increased in GRMD) was -0.1248 fraction, the “Change from GRMD Baseline (fraction): Amphoterin-induced protein 2 (AMIGO2)” value (Increased in GRMD) was -0.0371 fraction and the “Change from GRMD Baseline (fraction): Annexin A6 (ANXA6)” value (Increased in GRMD) was -0.0862 fraction. The “Change from GRMD Baseline (fraction): Anterior gradient protein 2 homolog (AGR2)” value (Increased in GRMD) was 0.2414 fraction and the “Change from GRMD Baseline (fraction): Apolipoprotein E (APOE)” value (Increased in GRMD) was 0.0948 fraction.
